# Reference: patent publication EP1409500B1, “ALKYLATED INOSITOLGLYCANS AND THEIR USES” (Rodaris Pharmaceuticals Limited, priority 2000, dated 2001)
# Key:
# [1] = system: PDH phosphatase; assay: PDH phosphatase activation assay; assay type: biochemical; settings: 100µM
# Excerpt: (§1) Methods for obtaining A-type and P-type mediators are set out in Caro et al, 1997, and in WO98/11116 and WO98/11117. Protocols for determining characteristic IPG biological activities such as PDH activation, PKA inhibition, acetylCoA activation, fructose-1,6-bis-phosphatase activity and lipogenesis are well known in the art, e.g. as described in Caro et al^[14].
# (§2) The compounds of the invention can be tested for one or more the characteristic IPG-P and/or IPG-A activities mentioned above to determine whether they will be suitable for use a IPG mimetics or antagonists. Preferred assays measure the effect of the compounds on PDH phosphatase, PKA or lipogenesis. Protocols for these assays are provided in Caro et al ^[14]. The compounds can also be tested to determine whether they activate or inhibit other enzymes involved in insulin signalling mechanism, such as glucose-6-phosphatase.
# In particular, preferred compounds having 1,6 linkages are good activators of PDH phosphatase activity.
# [2] = system: PKA; assay: PKA inhibition assay; assay type: biochemical
# Excerpt: as §1, §2
SMILES,PDH % activation [1] [%],PKA % inhibition ([2]; 0.1µM) [%],PKA % inhibition ([2]; 1µM) [%],PKA % inhibition ([2]; 10µM) [%]
"CO[C@H]1[C@H](O)[C@@H](O)[C@@H](O[C@@H]2O[C@H](CO)[C@@H](O)[C@H](O)[C@H]2N)[C@H](O)[C@@H]1O [RGL1015, O-(2-amino-2-deoxy-D-glucopyranosyl)-β(1,6)-D-3-O-methyl-chiro-inositol.]",38,14,15,
"CO[C@H]1[C@H](O)[C@@H](O)[C@@H](O[C@H]2O[C@H](CO)[C@@H](O)[C@H](O)[C@H]2N)[C@H](O)[C@@H]1O [RGL1024, O-(2-amino-2-deoxy-D-glucopyranosyl)-α(1,6)-D-3-O-methyl-chiro-inositol.]",65,17,34,2
"CO[C@H]1[C@H](O)[C@@H](O)[C@@H](O[C@H]2O[C@H](CO)[C@H](O)[C@H](O)[C@H]2N)[C@H](O)[C@@H]1O [RGL1025, O-(2-amino-2deoxy-D-galactopyranosyl)-α(1,6)-D-3-O-methyl-chiro-inositol.]",17,48,-13,
